Reference: patent US20030032813A1, “Rhodanine carboxylic acid derivatives for the treatment and prevention of metabolic bone disorders” (Angelika Esswein, Wolfgang Schaefer, and Konrad Honold, priority 1998, published 2003)

System: adenylate cyclase
Assay: assay for the capability of stimulating cyclic adenylate cyclase (cAMP formation)
Type: biochemical
Source text: Compounds of general formula (I) were investigated in a suitable assay for the capability of stimulating cyclic adenylate cyclase.

Compound | % cAMP (Test conc. 50 μM) [%]
CC(C)(C)c1cc(C=C2SC(=S)N(C(Cc3ccccc3)C(=O)O)C2=O)cc(C(C)(C)C)c1O (stereo not drawn) [Example 3, 2-[5-(3,5-Di-tert-butyl-4-hydroxy-benzylidene)-4-oxo-2-thioxo-thiazolidin-3-yl]-3-phenyl-propionic acid] | 8
O=C(O)CN1C(=O)C(=CC=CC=Cc2cc3ccccc3s2)SC1=S [Example 13, [5-(5-Benzo [b]thiophen-2-yl-penta-2,4-dienylidene)-4-oxo-2-thioxo-thiazolidin-3-yl]-acetic acid] | 10
O=C(O)CN1C(=O)C(=CC=Cc2cc3ccccc3s2)SC1=S [Example 16, [5-(3-Benzo [b]thiophen-2-yl-allylidene)-4-oxo-2-thioxo-thiazoldin-3-yl]-acetic acid] | 8
CC(C=CC1=C(C)CCCC1(C)C)=C1SC(=S)N(CC(=O)O)C1=O [Example 22, 5-[1-Methyl-3-[2,6,6-trimethyl-cyclohex-1-enyl)-allylidene]-4-oxo-2-thioxo-thiazolidin-3-yl-acetic acid] | 10
CC(C)(C)c1cc(C=C2SC(=S)N(CC(=O)O)C2=O)ccc1O [Example 23, [5-(3-tert-Butyl-4-hydroxy-benzylidene)-4-oxo-2-thioxo-thiazolidin-3-yl]-acetic acid] | 8
CC(C)(C)c1cc(C=C2SC(=S)N(CC(=O)O)C2=O)cc(C(C)(C)C)c1O [Example 25, [5-(3,5-Di-tert-butyl-4-hydroxy-benzylidene)-4-oxo-2-thioxo-thiazolidin-3-yl]-acetic acid] | 40
CC(C=CC1=C(C)CCCC1(C)C)=CC=C1SC(=S)N(CC(=O)O)C1=O [Example 46, 5-(3-Methyl-5-(2,6,6trimethyl-cyclohex-1-enyl)-penta-2,4-dienyliden]-4-oxo-2-thioxo-thiazolidin-3-yl-acetic acid] | 30
CC1=C(C=C2SC(=S)N(CCC(=O)O)C2=O)C(C)(C)CCC1 [Example 59, 3-(4-Oxo-2-thioxo-5-(2,6,6-trimetyl-cyclohex-1-enylmethylene)-thiazolidin-3-yl]-propionic acid] | 15
CC(C)(C)c1cc(C=C2SC(=S)N(CCC(=O)O)C2=O)cc(C(C)(C)C)c1O [Example 60, 3-[5-(3,5-Di-tert-butyl-4-hydroxy-benzylidene)-4-oxo-2-thioxo-thiazolidin-3-yl]-propionic acid] | 20
CC(C=CC1=C(C)CCCC1(C)C)=C1SC(=S)N(CCC(=O)O)C1=O [Example 72, 3-5-[1-Methyl-3-(2,6,6-trimethyl-cyclohex-1-enyl)-allylidene]-4-oxo-2-thioxo-thiazolidin-3-yl-propionic acid] | 15

System: not given
Assay: not given

Compound | melting point
O=C(O)CC(C(=O)O)N1C(=O)C(=Cc2cc3ccccc3s2)SC1=S (stereo not drawn) | 240 °C (dec.)
O=C(O)CN1C(=O)C(=Cc2cc3ccccc3s2)SC1=S | 292 to 294 °C
O=C(O)CN1C(=O)C(=Cc2ccc(O)cc2)SC1=S | 230 to 232 °C
COc1cc(C)c(C=C2SC(=S)N(CC(=O)O)C2=O)cc1C | 240 °C
COc1ccc(C=C2SC(=S)N(CC(=O)O)C2=O)cc1C | 235 to 236 °C
CC(C)(C)c1cc(C=C2SC(=S)N(C(CCC(=O)O)C(=O)O)C2=O)cc(C(C)(C)C)c1O (stereo not drawn) | 130 °C (dec.)
O=C(O)CCC(C(=O)O)N1C(=O)C(=Cc2cc3ccccc3s2)SC1=S (stereo not drawn) | 220 to 221 °C
O=C(O)CN1C(=O)C(=Cc2ccc(OCc3ccccc3)c(OCc3ccccc3)c2)SC1=S | 187 to 188 °C
CC(C)(C)c1cc(C=C2SC(=S)N(C(CC(=O)O)C(=O)O)C2=O)cc(C(C)(C)C)c1O (stereo not drawn) | 240 °C (dec.)
O=C(O)CN1C(=O)C(=Cc2ccc(OCc3ccccc3)cc2)SC1=S | 205 to 206 °C
CC(=C1SC(=S)N(CC(=O)O)C1=O)c1cc(O)cc(O)c1 | 184 to 188 °C
O=C(O)COc1ccc(CC=C2SC(=S)N(CC(=O)O)C2=O)cc1 | 111 to 120 °C (dec.)
O=C(O)CN1C(=O)C(=Cc2ccc(O)c(O)c2O)SC1=S | 263 °C (dec.)
COc1cc(O)c(C=C2SC(=S)N(CC(=O)O)C2=O)c(OC)c1 | 194 °C (dec.)
O=C(O)CCN1C(=O)C(=Cc2ccc(OCc3ccccc3)cc2)SC1=S | 188 to 191 °C
CC(C(=O)O)N1C(=O)C(=Cc2ccc(OCc3ccccc3)cc2)SC1=S (stereo not drawn) | 125 to 128 °C
O=C(O)CN1C(=O)C(=Cc2cc(OCc3ccccc3)ccc2O)SC1=S | 130 to 133 °C
COc1ccc(COc2ccc(C=C3SC(=S)N(CC(=O)O)C3=O)cc2)cc1 | 172 to 173 °C
O=C(O)CN1C(=O)C(=Cc2ccc(OCc3ccc4c(c3)OCO4)cc2)SC1=S | 206 to 207 °C
O=C(O)CCCCCN1C(=O)C(=Cc2cc(O)c(O)c(O)c2)SC1=S | 212 to 214 °C

Compound | melting point
COc1cccc(COc2ccc(C=C3SC(=S)N(CC(=O)O)C3=O)cc2)c1 | 191 to 193 °C
Cc1cc(C=C2SC(=S)N(CC(=O)O)C2=O)cc(C)c1O | 277 to 279 °C
CC(C)(C)c1cc(C=C2SC(=S)N(C(Cc3c[nH]c4ccccc34)C(=O)O)C2=O)cc(C(C)(C)C)c1O (stereo not drawn) | 140 °C (dec.)
O=C(O)CN1C(=O)C(=CC2=CC=C(OCc3ccccc3)C(O)(O)C2)SC1=S | 178 to 180 °C
O=C(O)CN1C(=O)C(=Cc2cc(OCc3ccccc3)ccc2OCc2ccccc2)SC1=S | 196 to 198 °C
CC(=O)Oc1cc(C=C2SC(=S)N(CC(=O)O)C2=O)cc(OC(C)=O)c1OC(C)=O | 200 °C (dec.)
O=C(O)CN1C(=O)C(=CCCc2ccccc2)SC1=S | 108 to 111 °C
CN1C(=O)C(=Cc2cc(C(C)(C)C)c(O)c(C(C)(C)C)c2)SC1=S | > 240 °C
COC(=O)CN1C(=O)C(=Cc2cc(C(C)(C)C)c(O)c(C(C)(C)C)c2)SC1=S | 165 to 170 °C
CCN(CC)C(=O)CN1C(=O)C(=Cc2cc(C(C)(C)C)c(O)c(C(C)(C)C)c2)SC1=S | 223 to 225 °C
CC(=O)Nc1ccc2sc(C=C3SC(=S)N(CC(=O)O)C3=O)cc2c1 | > 240 °C
CCOc1cc2cc(C=CC=C3SC(=S)N(CC(=O)OC)C3=O)sc2cc1OCC | 211 to 215 °C
O=C(O)CN1C(=O)C(=CC2CCN(C(=O)OCc3ccccc3)CC2)SC1=S | 114 to 115 °C
CC(C=CC1=C(C)CCCC1(C)C)=CC=CC(C)=CC=C1SC(=S)N(CC(=O)O)C1=O | 144 °C (dec.)
CC1C(C=C2SC(=S)N(CC(=O)O)C2=O)=CC=C(O)C1(C)O (stereo not drawn) | > 240 °C
CCOc1c(C)cc(C=C2SC(=S)N(CC(=O)O)C2=O)c(C)c1OCC | 185 to 190 °C
CCOc1c(C)cc(C=CC=C2SC(=S)N(CC(=O)O)C2=O)c(C)c1OCC | 210 °C (dec.)
CCC1=C(C=CC(C)=CC=CC=C2SC(=S)N(CC(=O)O)C2=O)C(CC)(CC)CCC1 | 192 to 195 °C
O=C(O)CCN1C(=O)C(=Cc2ccc3c(c2)OCO3)SC1=S | 174 to 176 °C
O=C(O)CCN1C(=O)C(=Cc2cccc3ccccc23)SC1=S | 159 to 161 °C

Compound | melting point
O=C(O)CCN1C(=O)C(=CC=Cc2cc3ccccc3s2)SC1=S | 246 to 248 °C
CCCCN(CCCC)c1ccc(C=C2SC(=S)N(CC(=O)O)C2=O)cc1 | 186 to 188 °C
CCCCCc1ccc(C=C2SC(=S)N(CC(=O)O)C2=O)cc1 | 160 to 162 °C
COc1cccc(C=C2SC(=S)N(CC(=O)O)C2=O)c1 | 193 to 196 °C
CCCCCCOc1ccccc1C=C1SC(=S)N(CC(=O)O)C1=O | 148 to 150 °C
CC(C)(C)c1cc(C=CC=C2SC(=S)N(CC(=O)O)C2=O)cc(C(C)(C)C)c1O | > 240 °C
COc1cc(C=C2SC(=S)N(CC(=O)O)C2=O)cc(OC)c1O | 238 to 240 °C
O=C(O)CN1C(=O)C(=Cc2ccc(O)c(C(=O)O)c2)SC1=S | > 260 °C
COc1cc(C)c2c(c1C=C1SC(=S)N(CC(=O)O)C1=O)Oc1c(c(C)c(O)c3c1C(O)OC3=O)OC2=O (stereo not drawn) | > 260 °C
Cc1[nH]c2ccccc2c1C=C1SC(=S)N(CC(=O)O)C1=O | 268 to 270 °C
CC(=O)Oc1ccc(C=C2SC(=S)N(CC(=O)O)C2=O)cc1OC(C)=O | 193 to 253 °C
O=C(O)CN1C(=O)C(=Cc2ccc3c(c2)CCO3)SC1=S | 246 to 247 °C
CC(C)(C)c1cc(C=C2SC(=S)N(C(Cc3ccccc3)C(=O)O)C2=O)cc(C(C)(C)C)c1O (stereo not drawn) [Example 3, 2-[5-(3,5-Di-tert-butyl-4-hydroxy-benzylidene)-4-oxo-2-thioxo-thiazolidin-3-yl]-3-phenyl-propionic acid] | 160 °C (dec.)
O=C(O)CN1C(=O)C(=CC=CC=Cc2cc3ccccc3s2)SC1=S [Example 13, [5-(5-Benzo [b]thiophen-2-yl-penta-2,4-dienylidene)-4-oxo-2-thioxo-thiazolidin-3-yl]-acetic acid] | > 240 °C
CC(C=CC1=C(C)CCCC1(C)C)=C1SC(=S)N(CC(=O)O)C1=O [Example 22, 5-[1-Methyl-3-[2,6,6-trimethyl-cyclohex-1-enyl)-allylidene]-4-oxo-2-thioxo-thiazolidin-3-yl-acetic acid] | 100 °C (dec.)
CC(C)(C)c1cc(C=C2SC(=S)N(CC(=O)O)C2=O)ccc1O [Example 23, [5-(3-tert-Butyl-4-hydroxy-benzylidene)-4-oxo-2-thioxo-thiazolidin-3-yl]-acetic acid] | > 240 °C
CC(C)(C)c1cc(C=C2SC(=S)N(CC(=O)O)C2=O)cc(C(C)(C)C)c1O [Example 25, [5-(3,5-Di-tert-butyl-4-hydroxy-benzylidene)-4-oxo-2-thioxo-thiazolidin-3-yl]-acetic acid] | 120 to 121 °C
CC(C=CC1=C(C)CCCC1(C)C)=CC=C1SC(=S)N(CC(=O)O)C1=O [Example 46, 5-(3-Methyl-5-(2,6,6trimethyl-cyclohex-1-enyl)-penta-2,4-dienyliden]-4-oxo-2-thioxo-thiazolidin-3-yl-acetic acid] | 153 to 155 °C
CC(C)(C)c1cc(C=C2SC(=S)N(CCC(=O)O)C2=O)cc(C(C)(C)C)c1O [Example 60, 3-[5-(3,5-Di-tert-butyl-4-hydroxy-benzylidene)-4-oxo-2-thioxo-thiazolidin-3-yl]-propionic acid] | 218 to 219 °C
